Reference: patent US12329738B2, “Urolithin A and a composition containing same for external use in inflammations of various etiologies” (WARSZAWSKI UNIWERSYTET MEDYCZNY, priority 2018, dated 2025)

Legend:
[1] = tested on: neutrophils and macrophages; conditions: cited from earlier work
[2] = tested on: Wistar rats (DNCB-induced atopic dermatitis); assay: Peripheral blood morphology in DNCB-induced atopic dermatitis rat model; assay type: in vivo
Description: Wistar rats aged 5-6 weeks (at the start of the experiment) kept under standard conditions with free access to feed and water were used for the tests. The animals were divided into 5 groups, 8 individuals in each group. To prepare 2,4-dinitrochlorobenzene (DNCB) composition inducing inflammation, DNCB was dissolved in 70% ethanol to a final concentration of 1.5% (w/v). Therapeutic composition was an ointment based on white petrolatum with 0.2% or 1.0% urolithin A added. The control ointment was white petrolatum without addition of urolithin A.
The induction of chronic atopic dermatitis involved local 9-fold infiltration with 60 μl 1.5% 2,4-dinitrochlorobenzene (DNCB) on each (external and internal) surface of the right ear over 3 weeks (3 times a week). Negative control was the right ear of rats without induction inflammation.
Treatment of atopic dermatitis with 0.2% or 1.0% urolithin composition and white petrolatum (control) or 1.0% hydrocortisone composition (positive control) was started eight days after sensitization—one day before the fourth application of DNCB. Ointments with appropriate for given group drug added were applied in a total volume of about 20 μl to each ear surface one day before and 6 hours after each DNCB application (for a period of 3 weeks). The negative control group consisted of rats without induced inflammation and treated with white petrolatum in a regimen analogous to the composition of urolithin A or hydrocortisone.
2 mL blood samples were drawn into syringes (containing heparin as an anticoagulant) from the heart under general anesthesia (isoflurane) on day 32 of the experiment. The test was conducted using the DIATRON automated hematology analyzer. Peripheral blood analysis included the assessment of morphotic elements in blood: erythrocytes, leukocytes and thrombocytes and determination of the number and percentage of different types of leukocytes—WBC as well as values of erythrocyte indicators: hemoglobin (HGB), hematocrit (HCT), mean corpuscular volume (MCV), mean corpuscular hemoglobin (MCH) and mean corpuscular hemoglobin concentration (MCHC).
The experimental results obtained were analyzed using the Statistica 7.1 program (StatSoft, Inc., Tulsa, OK, USA) and presented as mean values±SE. Statistical significance was set at P≤0.05. The results with established normal distribution in the D'Agostin and Pearson test were prepared using two- or three-factor analysis of variance (ANOVA). Parametric post-hoc analysis for individual time points was performed using the Bonferroni test.

[3] = day 32, 1% hydrocortisone, urolithin A 0.2 and 1%

O=c1oc2cc(O)ccc2c2ccc(O)cc12 [urolithin A]
Cytotoxic or antiproliferative activity [1]: there was not observed either cytotoxic or antiproliferative activity | WBC (leukocyte) level ([2]; 0.2% composition, day 32, vs petrolatum, p<0.05): reduced WBC values similar to 1% hydrocortisone | WBC (leukocyte) level ([2]; 1% composition, day 32, vs petrolatum, hydrocortisone p<0.05, urolithin A p<0.01): decrease in the WBC level | Final WBC values compared to negative control (without atopic dermatitis) ([2]; 1% hydrocortisone, urolithin A 0.2 and 1%): remained at a higher level compared to negative control groups | WBC growth inhibition compared to 1% hydrocortisone ([2]; 1% urolithin A): did not result in a significantly greater effect of WBC growth inhibition | MPV (fl), PDW (fl), PDWcv (%) ([2]; day 32): did not change | RBC, HGB, HCT, MCV ([2]; day 32): no changes | Concentration of hemoglobin in erythrocytes (MCH and MCHC) ([2]; day 32, 1% hydrocortisone (p<0.05), urolithin A 0.2 and 1.0%): this effect was not seen | Monocyte population [2, 3]: significantly inhibited the increase in the level of all three leukocyte populations | Neutrophil population [2, 3]: significantly inhibited the increase in the level of all three leukocyte populations | Lymphocyte level ([2]; day 32, 1% hydrocortisone, urolithin A 0.2 and 1%, vs petrolatum): significantly inhibited the increase in the level of all three leukocyte populations
